Reference: PMC7504817, “Phenylalanine Stereoisomers of CJ-15,208 and [D-Trp]CJ-15,208 Exhibit Distinctly Different Opioid Activity Profiles” (Molecules, 2020)
“Also recorded” adds a separate entry of the source. Like-named read-outs stand apart in the source and are kept apart here.

Tests used:
rat MOR = biological target: T1, rat MOR (Rattus norvegicus, UniProt P33535); experiment: Radioligand equilibrium competition binding, MOR; settings: [3H]DAMGO; membranes from CHO cells expressing rat MOR; mean ± SEM, at least three experiments
T1 construct: expressed in transfected cells

[1] = Metabolic stability in mouse liver microsomes; assay type: in vitro ADME; settings: pH 7.4, 5 µM peptide, 0.25 mg/mL protein, with NADPH, 37 °C, read-out: t1/2 in mouse liver microsomes
Method: The macrocyclic tetrapeptide (5 µM) in 1% acetonitrile was incubated with mouse liver microsomes (0.25 mg/mL protein, Xenotech, Lenexa, KS, USA) at 37 °C in the presence or absence of co-factor NADPH RapidStart System (1 mM, Xenotech) or NADPH solution (Sigma, St. Louis, MO, USA) in potassium phosphate buffer (50 mM, pH 7.4). Aliquots (100 µL) taken at 0, 5, 15, 30, 60 and 120 min were quenched with ice-cold acetonitrile (1 vol) containing internal standard ([D-NMeAla^2]CJ-15,208 [26], 5 µM) to precipitate the proteins. The lack of endogenous interference with the analysis of the stereoisomer or internal standard was confirmed by analyzing samples lacking the macrocyclic tetrapeptide.
Following centrifugation at 10,000× g rpm for 10 min, the supernatant (50 µL) was diluted with water (75 µL), stored overnight at −20 °C and analyzed by LC-MS/MS using methodology similar to that described for [D-Trp]CJ-15,208 [32]. Liquid chromatography was performed on a Hypersil BDS C8 column (50 mm × 2.1 mm, 3 µm) with a flow rate of 0.2 mL/min and an injection volume of 20 µL using an Acquity UPLC system (Waters, Milford, MA, USA). The peptides were separated using a gradient of aqueous acetonitrile containing 0.08% formic acid of 20% B (0–2 min), 20–50% B (2–3 min), 50–80% B (3–6 min), 80% B (6–7 min), 80–20% B (7–8 min) and 20% B (8–10 min).
ESI-MS/MS was performed on a Waters Quatro triple quadrupole instrument operating in the positive ion multiple reaction monitoring mode. Data acquisition was carried out with Mass Lynx 4.1 software with the following settings: capillary voltage, 2500 V; cone voltage, 30 V; source temperature, 100 °C; desolvation temperature, 250 °C; cone gas flow, 279 L/h; desolvation gas flow, 1157 L/h; LM 1 resolution, 14; HM 1 resolution, 14; ion energy 1, 1.0; MS/MS mode entrance, -1; MS/MS collision energy, 35 eV; MS/MS mode exit, 2; LM 2 resolution, 13.0; HM 2 resolution, 13.0; ion energy 2, 1.5; multiplier, 650; collision cell pressure, 1.63 × 10^−3 mbar; collision gas, argon. The transition m/z 578.2 ([M + H]^+) → 217.2 was monitored to determine the peak area counts of the stereoisomers, and m/z 566.2 ([M + H]^+) → 232.9 was monitored to determine the peak area counts of the internal standard (collision energy 22 eV) with the following settings: dwell time, 0.3 s; delay, 0.05 s.

C57BL/6J mice [2] = experiment: 55 °C warm-water tail-withdrawal assay (antinociception); assay type: in vivo, mouse; set-up: key to ED50 p.o. (symbol: not calculable): ~: Maximum antinociception not achieved, precluding calculation of an ED50 value; settings: for ED50 (and 95% C.I.) i.c.v. / ED50 (and 95% C.I.) p.o. / ED50 p.o. (symbol: not calculable): C57BL/6J mice; for ED50 (and 95% C.I.) i.c.v. / ED50 (and 95% C.I.) p.o.: antinociception at peak response; for antinociceptive efficacy / ED50 (and 95% C.I.) p.o. / antinociception at the highest oral dose tested / ED50 p.o. (symbol: not calculable): p.o.; for antinociception at the highest oral dose tested: 30 mg/kg
Method: For intracerebroventricular (i.c.v.) administration the macrocyclic tetrapeptides were dissolved in dimethyl sulfoxide (DMSO), followed by addition of sterile saline (0.9%) so that the final vehicle was 50% DMSO and 50% saline, and the i.c.v. injections performed as described previously. This concentration of DMSO was not observed to have antinociceptive or behavioral effects in previous use. For per os (p.o.) administration the macrocyclic tetrapeptides were administered in 10% Solutol in 0.9% saline. All solutions for animal administration were prepared fresh daily.
The 55 °C warm-water tail-withdrawal assay was performed in mice as previously described, with the latency of the mouse to withdraw its tail from the water taken as the endpoint (a cut-off time of 15 sec was used in this assay). Antinociception was calculated according to the following formula: % antinociception = 100 × (test latency − control latency)/(15 − control latency). Tail-withdrawal data points are the means of 8–16 mice, unless otherwise indicated, with SEM shown by error bars.
All dose-response lines were analyzed by regression, and ED50 (effective dose producing 50% antinociception) values and 95% confidence intervals (C.I.) determined using individual data points from graded dose-response curves with Prism 8.0 software (GraphPad, La Jolla, CA, USA). Percent antinociception was used to determine within group effects and to allow comparison to baseline latency in tail-withdrawal experiments. The statistical significance of differences between ED50 values was determined by evaluation of the ED50 value shift via nonlinear regression modeling with Prism software. Significant differences in behavioral data were analyzed by ANOVA (one-way or two-way with repeated measures (RM), as appropriate). Significant results were further analyzed with Sidak’s, Tukey’s, or Dunnett’s multiple comparison post hoc tests, as appropriate. Data for conditioned place preference experiments were analyzed by two-way RM ANOVA, with analyses examining the main effect of conditioned place preference phase (e.g., pre- or post-conditioning) and the interaction of drug pretreatment. Significant effects were further analyzed using Sidak’s HSD post hoc testing. All data are presented as mean ± SEM, with significance set at p < 0.05.

C57BL/6J mice [3] = experiment: Opioid receptor involvement in antinociception (antagonist pretreatment, tail-withdrawal assay); assay type: in vivo, mouse; settings: i.c.v. (1, 3, 4, 5 at 10 nmol, 2 at 100 nmol); pretreatment with β-FNA, nor-BNI or naltrindole
KOR = biological target: T2, KOR (Mus musculus, UniProt P33534); experiment: Antagonist activity against KOR-selective agonist U50,488 (tail-withdrawal assay); assay type: in vivo; settings: stereoisomer 30 nmol i.c.v. pretreatment; U50,488 10 mg/kg i.p.
T2 construct: from tissue; host or cells: whole animal, C57BL/6J mice

C57BL/6J mice [4] = settings: mouse, in vivo
rat KOR [5] = biological target: T3, rat KOR (Rattus norvegicus, UniProt P34975); experiment: biochemical
C57BL/6J mice [6] = experiment: Acute antinociceptive tolerance (tail-withdrawal assay, dosing at 0 and 8 h); settings: i.c.v.; for Fold-Shift, Naïve ED50 vs. Second ED50: 0 h vs 8 h; for acute antinociceptive tolerance: ED50 at 8 h vs 0 h; for Naïve ED50 (95% C.I.): naïve C57BL/6J mice, tail-withdrawal assay; for ED50 (95% C.I.) Pretreated Mice: 8 h after pretreatment with ED50 dose of the same compound, * significantly different from naïve
rat KOR [7] = biological target: T3, rat KOR; settings: ratio Ki(MOR)/Ki(KOR)
C57BL/6J mice [8] = settings: mouse, in vivo; remark: listed apart in the source
C57BL/6J mice [9] = settings: mouse, in vivo; remark: listed apart in the source
mouse DOR = settings: radioligand binding; ref [19]; cited from earlier work
C57BL/6J mice [10] = tested on: C57BL/6J mice; set-up: key to ED50 i.c.v. (symbol: not calculable) / ED50 p.o. (symbol: not calculable): ~: Maximum antinociception not achieved, precluding calculation of an ED50 value; settings: ref [19], cited from earlier work

T1 sequence (P33535 whole entry): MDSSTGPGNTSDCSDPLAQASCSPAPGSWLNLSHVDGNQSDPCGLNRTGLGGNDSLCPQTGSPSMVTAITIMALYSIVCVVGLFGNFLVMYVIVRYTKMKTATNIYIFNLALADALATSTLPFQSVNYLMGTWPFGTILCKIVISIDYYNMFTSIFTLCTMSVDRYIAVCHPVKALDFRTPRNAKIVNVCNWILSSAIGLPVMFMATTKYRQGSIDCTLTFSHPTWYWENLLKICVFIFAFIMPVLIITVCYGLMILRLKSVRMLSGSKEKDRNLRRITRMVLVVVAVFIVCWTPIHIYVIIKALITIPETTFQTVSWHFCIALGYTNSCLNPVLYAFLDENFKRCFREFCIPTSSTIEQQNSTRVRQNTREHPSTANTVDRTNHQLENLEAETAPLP
T3 sequence (P34975 whole entry): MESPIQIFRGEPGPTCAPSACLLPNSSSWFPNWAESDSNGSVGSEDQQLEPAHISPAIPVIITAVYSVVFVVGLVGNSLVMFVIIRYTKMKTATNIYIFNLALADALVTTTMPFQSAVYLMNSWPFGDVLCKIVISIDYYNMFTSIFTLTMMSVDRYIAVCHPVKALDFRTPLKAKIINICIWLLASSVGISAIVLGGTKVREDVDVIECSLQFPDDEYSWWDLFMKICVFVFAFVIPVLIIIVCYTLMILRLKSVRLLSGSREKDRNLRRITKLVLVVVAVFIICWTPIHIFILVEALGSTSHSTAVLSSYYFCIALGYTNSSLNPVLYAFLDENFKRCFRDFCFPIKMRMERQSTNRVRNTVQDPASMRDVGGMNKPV
T2 sequence (P33534 whole entry): as the sequence (P34975 whole entry) above, with E11D, A17S, P51S, V308A counted along it

Row | Structure (SMILES) | Ki (rat MOR) [nM] | half-life at 5 µM [1] [min] | time of peak antinociception (C57BL/6J mice [2]; after i.c.v. administration) [min] | duration of significant antinociception (C57BL/6J mice [2]; i.c.v. administration) | ED50 (and 95% C.I.) i.c.v. (C57BL/6J mice [2]; i.c.v.) | antinociceptive efficacy (C57BL/6J mice [2]) | time of peak antinociception (C57BL/6J mice [2]; p.o. administration) [min] | ED50 (and 95% C.I.) p.o. (C57BL/6J mice [2]) | Receptors Involved (in antinociception) (C57BL/6J mice [3]) | effect on coordinated locomotor performance (rotarod) vs vehicle (C57BL/6J mice [4]) | Ki (rat KOR [5]) [µM] | Fold-Shift, Naïve ED50 vs. Second ED50 (C57BL/6J mice [6]) [fold] | acute antinociceptive tolerance (C57BL/6J mice [6]) | Naïve ED50 (95% C.I.) (C57BL/6J mice [6]) | antinociception at the highest oral dose tested (C57BL/6J mice [2]) | ED50 p.o. (symbol: not calculable) (C57BL/6J mice [2]) | Selectivity Ki (MOR) Ki (KOR) (rat KOR [7]) | ED50 (95% C.I.) Pretreated Mice (C57BL/6J mice [6]) | further results
1 | O=C1N[C@H](Cc2ccccc2)C(=O)N2CCC[C@@H]2C(=O)N[C@@H](Cc2ccccc2)C(=O)N[C@H]1Cc1c[nH]c2ccccc12 (single isomer, unassigned) [Stereoisomer 1, cyclo[D-Phe-D-Pro-Phe-Trp]] | > 10000 | 54 | 20 | intermediate duration | 0.75 (0.36–1.44) nmol | full antinociception | 20 to 30 | 7.62 (5.12–12.2) mg/kg | all three opioid receptors contributed to the antinociception; also recorded: KOR, MOR, DOR | limited impairment of performance | 5.12 ± 0.69 | 31.2 | greater acute antinociceptive tolerance than CJ-15,208 | 0.65 (0.31–1.31) nmol | – | – | – | – | antagonism of U50,488 antinociception (KOR antagonist activity) (KOR): significant antagonism of U50,488
2 | O=C1N[C@@H](Cc2ccccc2)C(=O)N2CCC[C@@H]2C(=O)N[C@H](Cc2ccccc2)C(=O)N[C@H]1Cc1c[nH]c2ccccc12 (single isomer, unassigned) [Stereoisomer 2, cyclo[Phe-D-Pro-D-Phe-Trp]] | 3920 ± 200 | 15 | 30 | 90 min | 20.4 (10–58.7) nmol | – | – | – | KOR- and MOR-mediated antinociception | lacked any significant effect | 0.362 ± 0.051 | 6.13 | the increase was not statistically significant | 20.4 (10–58.7) nmol | 45–60% | ~ | 11 | 125 (89.9–224) nmol | antinociception at the highest dose tested (C57BL/6J mice [2]; 100 nmol, i.c.v.): approximately 70%
3 | O=C1N[C@H](Cc2ccccc2)C(=O)N2CCC[C@@H]2C(=O)N[C@H](Cc2ccccc2)C(=O)N[C@H]1Cc1c[nH]c2ccccc12 (single isomer, unassigned) [Stereoisomer 3, cyclo[D-Phe-D-Pro-D-Phe-Trp]] | 7780 ± 410 | 6 | 20 | 45 min | 1.00 (0.64–1.60) nmol | full antinociception | 20 to 30 | 4.12 (3.30–5.31) mg/kg | KOR- and DOR-mediated | lacked any significant effect | 2.56 ± 0.48 | 5.19 | greater acute antinociceptive tolerance than CJ-15,208 | 1.00 (0.64–1.60) nmol | – | – | 3 | – | effect on ambulation vs vehicle (C57BL/6J mice [8]): elevated ambulations at several time-points; conditioned place preference or aversion (C57BL/6J mice [9]): no significant preference or aversion
4 | O=C1N[C@H](Cc2c[nH]c3ccccc23)C(=O)N[C@H](Cc2ccccc2)C(=O)N2CCC[C@@H]2C(=O)N[C@H]1Cc1ccccc1 (single isomer, unassigned) [Stereoisomer 4, cyclo[D-Phe-D-Pro-Phe-D-Trp]] | > 10000 | 30 | 20 | 45 min | 2.39 (1.40–4.56) nmol | – | – | – | KOR- and DOR-mediated | limited impairment of performance | > 10 | 0.54 | Neither stereoisomer 4 or 5 demonstrated any significant changes in the ED50 values | 2.39 (1.40–4.56) nmol | 45–60% | ~ | – | 1.28 (0.96–1.66) nmol | duration of significant antinociception (C57BL/6J mice [2]; p.o. administration): 30 to 40 min; effect on respiration rate vs vehicle (C57BL/6J mice [8]): significant decreases in respiration rates
5 | O=C1N[C@H](Cc2c[nH]c3ccccc23)C(=O)N[C@@H](Cc2ccccc2)C(=O)N2CCC[C@@H]2C(=O)N[C@H]1Cc1ccccc1 [[D-Trp]CJ-15,208, cyclo[Phe-D-Pro-Phe-D-Trp]] | – | – | – | – | – | – | – | – | – | – | 0.0218 ± 0.0048 | – | – | – | – | – | 12 | – | affinity for DOR (mouse DOR): negligible affinity for DOR; ED50 i.c.v. (symbol: not calculable) (C57BL/6J mice [10]; i.c.v., mice, [21]): ~; ED50 p.o. (symbol: not calculable) (C57BL/6J mice [10]; p.o., mice, [21]): ~; antinociceptive activity (C57BL/6J mice [10]): minimal antinociceptive activity
